# Results taken from US9233961B2, “Compounds and compositions for the treatment of parasitic diseases” (Novartis AG, priority 2013, dated 2016).
# Read-outs that look alike come from different tables or passages of the source.
# Key:
# [1] = system: Trypanosoma brucei Lister 427 strain bloodstream form; assay: Assay for proliferation of kinetoplastid parasite Trypanosoma brucei; format: cell-based; conditions: read-out: T. brucei EC50
# Text: Assay for Proliferation of Kinetoplastid Parasite Trypanosoma brucei.
# The proliferation is quantified by the addition of Cell Titer Glo (Promega®) a luminescent cell viability assay that measures the number of viable cells in culture based on the quantification of cellular ATP amount, which is an indicator of metabolically active cells.
# The following assay illustrates the invention without in any way limiting the scope of the invention. This parasite proliferation assay measures the increase in parasite growth using an assay that measures ATP activity, Cell Titer Glo®.
# Trypanosoma brucei Lister 427 strain is grown in HMI-9 Trypanosome media for T. brucei bloodstream form. 30 μl of HMI-9 media is dispensed into 384 well assay plates. 200 nl of compounds of the invention (in DMSO), including anti-trypanosome controls (Pentamidine and suramin), are then transferred into the assay plates, as well as DMSO alone to serve as a negative control for inhibition. Then 25 μl of a suspension of T. brucei culture in HMI-9 media is dispensed into the assay plates. The final concentration of parasites in culture corresponds to 1.7% of 0.5 uM ATP activity with Cell Titer Glo® in HMI-9 media. The plates are placed in a 37° C. incubator for 48 hours in an atmospheric environment containing 5% CO2. 40 μl of Cell Titer Glo® is dispensed into the plates. The plates are then read for luminescence. The percentage inhibition of 50%, EC50, is calculated for each compound.
# [2] = system: L. donovani HU3 strain in mouse peritoneal macrophages; assay: Assay for proliferation of Leishmania parasites in mouse peritoneal macrophages; format: cell-based, Leishmania donovani; conditions: Leishmania donovani, Peritoneal macrophage, read-out: L. donavani Macrophage EC50
# In short: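 EC50 derives from counting SYBR Green-stained parasite nuclei by high-content imaging after 5 days' compound exposure. Host cells were uninfected BALB/c peritoneal macrophages, infected for 24 h before dosing with spleen-derived L. donovani HU3 parasites from mice infected 9–11 weeks.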
# [3] = system: Leishmania donovani axenic amastigote parasites; assay: Leishmania donovani axenic amastigote proliferation assay; format: cell-based; conditions: read-out: L. donovani amastigotes EC50
# In short: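 EC50 values come from CellTiter-Glo luminescence after 2-day compound exposure of axenic amastigotes (9600 per well) at 37 °C, 5% CO2. Medium: RPMI 1640, 20% heat-inactivated FBS, folic acid, adenosine, D-glucose, 25 mM MES, adjusted to pH 5.5.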
# [4] = Lister 427 bloodstream form, 48 hours
SMILES,"EC50 [1, 4] [µM]",EC50 [2] [µM],EC50 ([3]; axenic amastigotes in vitro) [µM],EC50 ([1]; 48 h) [µM],EC50 [3] [µM]
Cc1cnc2nc(-c3cc(NC(=O)c4cccc(S(C)(=O)=O)c4)ccc3Cl)[nH]c2c1 [Compound 140],6.8,> 50,> 25,–,–
Cc1cnc2nc(-c3cc(NC(=O)C4CCc5ccccc5O4)ccc3Cl)[nH]c2c1 (stereo not drawn) [Compound 198],8.4,> 28.7,> 25,–,–
COc1ccccc1C(=O)Nc1ccc(Cl)c(-c2nc3ncc(C)cc3[nH]2)c1 [Compound 108],8.3,16.3,> 25,–,–
Cc1cnc2nc(-c3cc(NC(=O)N4CCNC4=O)ccc3Cl)[nH]c2c1 [Compound 246],> 25,> 50,> 25,–,–
CN(C)CCOc1ccc(-c2cnc3nc(-c4cc(NC(=O)c5ccco5)ccc4Cl)[nH]c3c2)cc1 [Compound 69],0.1,2.74,18.1,–,–
Cc1cnc2nc(-c3cc(NC(=O)c4cocn4)ccc3Cl)[nH]c2c1 [Compound 113],1.68,26.4,15.3,–,–
Cc1cnc2nc(-c3cc(NC(=O)Cn4ccnc4)ccc3Cl)[nH]c2c1 [Compound 197],> 22.3,> 50,> 25,–,–
O=C(Nc1ccc(Cl)c(-c2nc3ncc(-c4ccc(OCC5CC5)cc4)cc3[nH]2)c1)c1ccco1 [Compound 36],0.188,2.27,1.03,–,–
Cc1cnc2nc(-c3cc(Nc4ccc(N5CCOCC5)cn4)ccc3Cl)[nH]c2c1 [Compound 260],17.7,29.3,> 25,–,–
"CNc1ccc(-c2cnc3nc(-c4cc(NC(=O)c5cc(C)cs5)ccc4Cl)[nH]c3c2)cc1 [Example 345, N-(4-chloro-3-{6-[4-(methylamino)phenyl]-1H-imidazo[4,5-b]pyridin-2-yl}phenyl)-4-methylthiophene-2-carboxamide]",0.277,1.35,1.97,–,–
Cc1cnc2nc(-c3cc(NC(=O)Cc4onc5ccccc45)ccc3Cl)[nH]c2c1 [Compound 146],> 14.2,21.7,> 25,–,–
CNc1ccc(-c2cnc3nc(-c4cc(NC(=O)C5CCCC5)ccc4Cl)[nH]c3c2)cc1 [Compound 346],0.56,0.47,2.53,–,–
Cc1cnc2nc(-c3cc(NC(=O)Cc4ccc(F)c(F)c4)ccc3Cl)[nH]c2c1 [Compound 142],> 14,20.7,> 25,–,–
Cc1csc(C(=O)Nc2ccc(Cl)c(-c3nc4ncc(C)cc4[nH]3)c2)c1 [Compound 209],1.41,10.4,7.9,–,–
"Cc1cnc2nc(-c3cc(NC(=O)OCCF)ccc3Cl)[nH]c2c1 [Example 214, 2-Fluoroethyl N-(4-chloro-3-{6-methyl-1H-imidazo[4,5-b]pyridin-2-yl}phenyl)carbamate]",–,27.5,–,2.25,8.4
Cc1cnc2nc(-c3cc(NC(=O)C4(C)COC4)ccc3Cl)[nH]c2c1 [Compound 163],> 25,> 50,> 25,–,–
Cc1cnc2nc(-c3cc(NC(=O)c4cscn4)ccc3Cl)[nH]c2c1 [Compound 205],1.26,> 46.3,14.3,–,–
Cc1cnc2nc(-c3cc(Nc4ccc(C#N)cn4)ccc3Cl)[nH]c2c1 [Compound 263],> 25,> 30.1,> 25,–,–
Cc1cnc2nc(-c3cc(NC(=O)COc4ccccc4)ccc3Cl)[nH]c2c1 [Compound 120],10.5,> 50,> 25,–,–
Cc1cnc2nc(-c3cc(NC(=O)c4ccc(N5CCOCC5)cc4)ccc3Cl)[nH]c2c1 [Compound 109],15.1,> 19.1,> 24.4,–,–
Cc1cnc2nc(-c3cc(NC(=O)Cc4cccnc4)ccc3Cl)[nH]c2c1 [Compound 97],> 18.7,> 50,> 25,–,–
Cc1cnc2nc(-c3cc(NC(=O)c4cc(Cl)cc(Cl)c4)ccc3Cl)[nH]c2c1 [Compound 196],11.2,11,> 25,–,–
Cc1cnc2nc(-c3cc(NC(=O)Cc4ccc(F)cc4F)ccc3Cl)[nH]c2c1 [Compound 114],> 11.9,> 41.5,> 25,–,–

SMILES,"EC50 [1, 4] [µM]",EC50 [2] [µM],EC50 ([3]; axenic amastigotes in vitro) [µM],EC50 ([1]; 48 h) [µM],EC50 [3] [µM]
Cc1cnc2nc(-c3cc(NC(=O)Cc4ccc(N(C)C)cc4)ccc3Cl)[nH]c2c1 [Compound 82],> 14.1,> 38.5,> 25,–,–
"Cc1cnc2nc(-c3cc(NC(=O)Cc4cccc(F)c4F)ccc3Cl)[nH]c2c1 [Example 78, N-(4-chloro-3-{6-methyl-1H-imidazo[4,5-b]pyridin-2-yl}phenyl)-2-(2,3-difluorophenyl)acetamide]",> 6.6,> 50,> 25,–,–
Cc1cnc2nc(-c3cc(NS(=O)(=O)Cc4ccc(C(F)(F)F)cc4)ccc3Cl)[nH]c2c1 [Compound 252],> 25,> 50,> 25,–,–
Cc1cnc2nc(-c3cc(NC(=O)c4sc(C)nc4C)ccc3Cl)[nH]c2c1 [Compound 191],> 16.2,> 39.1,> 25,–,–
Cc1cnc2nc(-c3cc(NC(=O)c4cccc(N(C)C)c4)ccc3Cl)[nH]c2c1 [Compound 184],8.4,> 50,> 25,–,–
Cc1cnc2nc(-c3cc(NC(=O)c4nc(C)n[nH]4)ccc3Cl)[nH]c2c1 [Compound 203],> 25,> 50,> 25,–,–
Cc1cnc2nc(-c3cc(NC(=O)c4cccnc4)ccc3Cl)[nH]c2c1 [Compound 208],2.48,> 32.7,8.7,–,–
Cc1cnc2nc(-c3cc(NC(=O)C4CCC4)ccc3Cl)[nH]c2c1 [Compound 118],3.2,21.8,11.1,–,–
Cc1cnc2nc(-c3cc(NC(=O)c4nc(C)oc4C)ccc3Cl)[nH]c2c1 [Compound 179],5,> 50,> 25,–,–
Cc1cnc2nc(-c3cc(NC(=O)c4ccc(C(C)(C)C)o4)ccc3Cl)[nH]c2c1 [Compound 190],5.8,20.2,> 24,–,–
Cc1cnc2nc(-c3cc(NC(=O)C4CCCC4)ccc3Cl)[nH]c2c1 [Compound 199],4.4,21.5,23.7,–,–
N#Cc1ccc(-c2cnc3nc(-c4cc(NC(=O)c5ccco5)ccc4Cl)[nH]c3c2)cc1 [Compound 20],0.054,1.78,0.239,–,–
Cc1cnc2nc(-c3cc(NC(=O)c4ccnn4C)ccc3Cl)[nH]c2c1 [Compound 213],> 25,> 48,> 25,–,–
CS(=O)(=O)c1ccc(-c2cnc3nc(-c4cc(NC(=O)c5ccco5)ccc4Cl)[nH]c3c2)cc1 [Compound 46],0.037,1.33,0.5,–,–
Cc1cnc2nc(-c3cc(NC(=O)Cc4ccccc4)ccc3Cl)[nH]c2c1 [Compound 202],1.87,> 50,> 25,–,–
Cc1cnc2nc(-c3cc(NC(=O)c4ccc(S(C)(=O)=O)cc4Cl)ccc3Cl)[nH]c2c1 [Compound 110],> 13.6,23.8,> 25,–,–
Cc1cnc2nc(-c3cc(NC(=O)C4(C)CN(C(=O)OC(C)(C)C)C4)ccc3Cl)[nH]c2c1 [Compound 133],> 25,> 50,> 25,–,–
Cc1cnc2nc(-c3cc(NS(=O)(=O)CC(C)C)ccc3Cl)[nH]c2c1 [Compound 255],> 25,> 50,> 25,–,–
COc1ccc(-c2cnc3nc(-c4cc(NC(=O)c5ccco5)ccc4Cl)[nH]c3c2)c(OC)n1 [Compound 61],0.182,3.2,1.13,–,–
Cc1cnc2nc(-c3cc(NC(=O)c4ncc[nH]4)ccc3Cl)[nH]c2c1 [Compound 95],> 14.4,> 50,> 25,–,–
Cc1cnc2nc(-c3cc(NC(=O)Cn4cnnn4)ccc3Cl)[nH]c2c1 [Compound 170],> 25,> 50,> 25,–,–
O=C(Nc1ccc(Cl)c(-c2nc3ncc(-c4ccc(OCCN5CCCCC5)cc4)cc3[nH]2)c1)c1ccco1 [Compound 21],0.063,2.8,16,–,–
CCOC(=O)Nc1ccc(Cl)c(-c2nc3ncc(-c4ccc5c(c4)CC(=O)N5)cc3[nH]2)c1 [Compound 378],0.02,3.3,0.69,–,–
